# Patent publication US6468537B1, “Localization of major peptide autoepitopes for nucleosome specific T cells of systemic lupus erythematosus” (The Board of Trustees of Northwestern University, priority 1999, dated 2002)
# Assays:
# [1] = system: pathogenic Th clones from SNF1 mice; test: Stimulation of nucleosome-specific pathogenic Th clones from SNF1 mice by eluted/synthetic peptides; format: cell-based, mouse; settings: A20 or splenic B+Mφ as APC
# Method: Fresh splenic, CD4^+ T cells (5×10^5/well) were co-cultured in triplicate wells at an initial concentration of 5×10^5 cells per well, with 10^6 cells per well of either irradiated B+Mφ or mitomycin-C treated A20 APC. Varying concentrations of either control or test peptides were added and the cultures were adjusted to 200 microliters final volume of HL-1 serum-free medium (Hycor Biomedical Inc., Irvine, Calif.) cultures were incubated for 96 hours in flat bottom 96-well plates, and at 18 hours prior to harvesting the cells, 1 microcurie of 3H-Thymidine was added to each well. The incorporated radioactivity was measured by scintillation counting. The Stimulation Index (SI) was calculated by dividing the mean counts per minute (cpm) incorporated in co-cultures of T cells and APC with test peptide by the mean cpm incorporated in control peptide co-cultures. In the case of cytokine assays, experiments were carried out as described for the proliferation assays except that the culture supernatants were removed from duplicate co-culture wells after 24-46 hours of incubation and cytokine assays were performed.
# An aliquot of 50 microliters from each HPLC fraction was assayed for stimulating ability as described above. Four characterized Th clones were used as indicators of cytokine secretion (IL-2 and/or IL-4) in response to the peptide fractions, using A20 or splenic B+Mψ as APCs (Adams, et al., 1991, Proc. Natl. Acad. Sci. USA 88:11271-11275; Shi, et al., 1998, J. Exp. Med. 187:367-378). […] Only two out of one hundred fractions tested were able to stimulate Th cell clones. […] The latter was further separated as described, and tested for active fractions of HPLC purified peptides.. Three naturally processed and presented, stimulatory epitopes were identified using these procedures. The sequences of the peptides are as follows: SQKEEEEGAQREKE (EP-1, SEQ ID NO: 23); DWMEEEHGAQREKE (EP-2, SEQ ID NO: 24); and […] (EP-3, or H522-42, SEQ ID NO: 25). The first two peptides were homologous to sequences in a transcription factor, BRN-3, which is identical in chicken, mice and humans (GenBank). […] EP-1 is highly homologous to EP-2, but it also matched a sequence in cytomegalovirus envelope protein at aa position 57-70. Most likely these peptides are derived from some transcription factor in the chromatin that was incubated with the APC. The third sequence (EP-3) was derived from histone H5 (aa position 22-42) in chicken nucleosome, which is homologous to histone H1 sequence of mice and humans at amino acid position 22-42 ([…], SEQ ID NO:26). […] Therefore, the mouse H122-42 is the autoantigenic peptide in mice and is also referred to herein as EP-3. Nested sequences and unrelated sequences that were obtained in the active fractions from the eluates were also synthesized and re-tested.
# SNF1 mice [2] = test: Acceleration of SLE-associated nephritis by immunization with eluted peptides in adjuvant; format: in vivo, mouse; settings: for onset/rate of disease relative to control group (CFA alone or OVA peptide in CFA): immunization from 12 weeks
# From the text: The animals received three more injections at two weeks interval with 50 micrograms of either an eluted peptide or the control peptide absorbed on alum (Pierce Chemical Co., Rockford, Ill.).
# SNF1 mice [3] = test: IgG anti-nuclear autoantibody and total IgG levels in sera of peptide-injected mice (ELISA); format: in vivo, mouse; settings: sera 1:400
# Method: (§1) Long-term experiments used 12 week-old, autoimmune, but pre-nephritic SNF1 female mice. Nine mice per peptide test group were injected intravenously with either a saline (solution) or a peptide solution comprising saline and 300 micrograms of one of H2B10-33, H416-39, and H471-94. Each mouse received three subsequent injections of either the saline solution or one of the peptide solutions at two-week intervals. The mice were monitored weekly for proteinuria using an Albustix kit (VWR Scientific, Chicago, Ill.), and sacrificed upon the development of persistent proteinuria. Persistent protenuria was identified as an amount of protein in urine that is equivalent to or greater than 300 milligrams per deciliter, and is a primary indication of severe kidney disease and damage associated with nephritis. Sera were collected from each mouse and the IgG anti-nuclear autoantibodies determined. Blood urea nitrogen (BUN) was measured by Azostix (Miles, Ekhart, Ind.). Immune complex deposition and glomerulonephritis in the kidney were detected by staining with Hematoxylin and Eosin and anti-mouse Ig. These procedures were carried out as previously described (Mohan et al., 1993, J. Exp. Med. 177:1367; Mohan et al., 1995, J. Immunol. 154:1470; Eastcott et al., 1983, J. Immunol. 131:2232; Adams et al., 1991, Proc. Natl. Acad. Sci. USA 88:11271; Kalled et al., 1998, J. Immunol. 160:2158; Gaynor et al., 1997, Proc. Natl. Acad. Sci. USA 94:1955).
# (§2) Levels of IgG class autoantibodies specific for single-stranded DNA (ssDNA), double-stranded DNA (dsDNA), histones, and nucleosomes (i.e. histone-DNA complexes), in culture supernatants or serum, were estimated using an enzyme-linked immunosorbent assay (ELISA). Anti-DNA mAbs 564 and 205 were used to generate standard curves as previously described (Mohan et al., 1993, J. Exp. Med. 177:1367; Kaliyaperumal et al., 1996, J. Exp. Med. 183:2459; Mohan et al., 1995, J. Immunol. 154:1470; Adams et al., 1991, Proc. Natl. Acad. Sci. USA 88:11271). Sera were diluted 1:400 and heat-inactivated before use according to standard procedures. Sera from normal SWR mice were used as the negative control. Total polyclonal IgG levels were also measured by ELISA as previously described (Mohan et al., 1993, J. Exp. Med. 177:1367; Mohan et al., 1995, J. Immunol. 154:1470; Adams et al., 1991, Proc. Natl. Acad. Sci. USA 88:11271).
# SNF1 mice [4] = test: Brief therapy with nucleosomal histone peptides (long-term experiments): incidence of severe nephritis; format: in vivo, mouse
# Method: as §1
# CD4+ T cells = test: Helper assay: CD4+ T cells from peptide-injected mice co-cultured with B cells from unmanipulated SNF1 mice; format: cell-based, mouse
# From the text: as §2
# T-cells from peptide-treated mice used in the short-term experiments were co-cultured with splenic B cells from unmanipulated mice. Conversely, T cells from unmanipulated SNF1 mice (i.e. control mice) were co-cultured with splenic B cells from tolerized (i.e. peptide-injected) mice. Each of the cell types was seeded in 24-well plates at an initial concentration of 2.5×10^6 cells per well. Cultures were maintained for 7 days, as previously described (Datta et al., 1987, J. Exp. Med. 165:1252; Sainis and Datta, 1988, J. Immunol. 140:2215). B cells from unmanipulated or tolerized animals were cultured alone to measure baseline autoantibody production. Culture supernatants were collected, freeze-thawed, and assayed by ELISA for antibodies against ssDNA, dsDNA, histones and nucleosomes. For studies involving stimulation of B cells by soluble CD40 ligand, CD40L-CD8 fusion protein (Wortis et al., 1995, Proc. Natl. Acad. Sci. USA 92:3348) was added to either the co-culture wells or the wells with B cells alone and maintained in the medium for the entire 7-day culture period.
# SNF1 mice [5] = test: Short-term tolerance experiments: grading of lupus nephritis at sacrifice; format: in vivo, mouse; settings: short-term batch, at sacrifice two weeks after last injection
# Method: Short-term experiments were conducted to test the early immunological consequences of tolerance therapy. Twelve week old SNF1 mice were injected once a week for four weeks with either a saline solution or a peptide solution comprising saline and 300 micrograms of one of the above described peptides. Mice were sacrificed at two weeks after the last injection. Presence of autoimmune T and B cells was analyzed and renal lesions were graded.
# SNF1 mice [6] = test: Chronic therapy of established glomerulonephritis with nucleosomal peptides; format: in vivo, mouse
# Method: Six mice per group were injected intraperitoneally once each month with either a saline solution or a peptide solution comprising saline and 300 micrograms of one of the identified peptides. The endpoint of these experiments was the development of moribund state due to renal failure.
# CD4+ T cell clone DD2 = test: IL-2 production by lupus Th cell clone DD2 in response to histone peptides; format: cell-based, human
# Method: Short-term T cell lines were rapidly thawed from liquid nitrogen and expanded in the presence of plate-bound anti-CD3 mAb, anti-CD28 mAb, and rIL-2 (20 units per milliliter). The expanded cells were transferred to fresh culture wells and rested by incubating in fresh medium for 10 to 14 days. For stimulation assays, 96 well plates were coated with 2 micrograms per milliliter of goat anti-mouse IgG antibodies overnight at 37° C. After washing the plates twice with Dulbecco's phosphate-buffered saline (dPBS), autologous and previously irradiated (3,000 rad) EBV-B cells (APC) were first added to each well at a concentration of 1×10^5 cells per well. The cells (APC) were cultured together with either a core histone peptide or a control peptide for 6 hours in HL-1 serum free medium (Bio Whittaker, Maryland). This procedure was followed by the addition to each well of CD4^+ T cells from the short-term lines at a concentration of 1×10^5 cells per well, and the addition of 0.5 micrograms per milliliter of a mouse monoclonal antibody (mAb) to human CD28. The final volume of the cultures was 200 microliters per well. Cells were co-cultured for 24 hours at 37° C. One-half the volume of supernatant was collected from each well for ELISA analysis of interleukin levels. Fresh medium (100 microliters) was added to cells, and the cells were incubated an additional 48 hours. [^3H] thymidine was added, and the cultures were incubated an additional 18 hours. Incorporated radioactivity was measured to quantitate T cell proliferation as described previously (Desai-Mehta et al., 1995, J. Clin. Invest. 95:53 1-541). HLA class II dependence of antigen-specific responses by the CD4^+ T cells was determined by adding to the co-cultures a blocking antibody from a panel of mAb to HLA class II molecules, as described previously (Desai-Mehta et al., 1995, J. Clin. Invest. 95:53 1-541). […]
# IL-2 secreted by CD4^+ T cells in short term experiments was measured using an ELISA. […]
# [7] = system: short-term CD4+ T cell lines; test: IL-2 production by short-term CD4+ T cell lines in response to histone peptides (pepscan); format: cell-based, human
# Method: Short-term T cell lines were rapidly thawed from liquid nitrogen and expanded in the presence of plate-bound anti-CD3 mAb, anti-CD28 mAb, and rIL-2 (20 units per milliliter). The expanded cells were transferred to fresh culture wells and rested by incubating in fresh medium for 10 to 14 days. For stimulation assays, 96 well plates were coated with 2 micrograms per milliliter of goat anti-mouse IgG antibodies overnight at 37° C. After washing the plates twice with Dulbecco's phosphate-buffered saline (dPBS), autologous and previously irradiated (3,000 rad) EBV-B cells (APC) were first added to each well at a concentration of 1×10^5 cells per well. The cells (APC) were cultured together with either a core histone peptide or a control peptide for 6 hours in HL-1 serum free medium (Bio Whittaker, Maryland). This procedure was followed by the addition to each well of CD4^+ T cells from the short-term lines at a concentration of 1×10^5 cells per well, and the addition of 0.5 micrograms per milliliter of a mouse monoclonal antibody (mAb) to human CD28. The final volume of the cultures was 200 microliters per well. Cells were co-cultured for 24 hours at 37° C. One-half the volume of supernatant was collected from each well for ELISA analysis of interleukin levels. Fresh medium (100 microliters) was added to cells, and the cells were incubated an additional 48 hours. [^3H] thymidine was added, and the cultures were incubated an additional 18 hours. Incorporated radioactivity was measured to quantitate T cell proliferation as described previously (Desai-Mehta et al., 1995, J. Clin. Invest. 95:53 1-541). HLA class II dependence of antigen-specific responses by the CD4^+ T cells was determined by adding to the co-cultures a blocking antibody from a panel of mAb to HLA class II molecules, as described previously (Desai-Mehta et al., 1995, J. Clin. Invest. 95:53 1-541).
# IL-2 secreted by CD4^+ T cells in short term experiments was measured using an ELISA. Capture and biotinylated antibody pairs directed at human IL-2 and standards for use therein were purchased from PharMingen. […]
substance,measurement,setting,value
DWMEEEHGAQREKE (DWMEEEEGAQREKE; Histone fragment) [EP-2],stimulation of pathogenic Th clones,[1],stimulatory
same,mice developed disease,SNF1 mice [2]; by 20 weeks of age,60%
same,onset/rate of disease relative to control group (CFA alone or OVA peptide in CFA),SNF1 mice [2],developed severe nephritis earlier
H2B10-33: histone 2B protein (H2B) amino acids 10-33,serum anti-dsDNA antibody level,"SNF1 mice [3]; at 36 weeks of age, control 26±3.2",14.0±3.2 units
same,serum anti-dsDNA antibody level,"SNF1 mice [3]; at the start of treatment (12 weeks), control 5.5±0.3",7.7±0.9 units
same,incidence of severe nephritis,"SNF1 mice [4]; at 28 weeks of age, 300 micrograms i.v., four injections at two-week intervals from 12 weeks",did not develop disease
same,incidence of severe nephritis,"SNF1 mice [4]; at 36-38 weeks of age, control 88.8%",33.3%
same,reduction of anti-ssDNA antibody production relative to control group,CD4+ T cells; T cells from treated mice + B cells from unmanipulated mice,approximately 55%
same,decrease in anti-dsDNA antibody production relative to control group,"CD4+ T cells; T cells from treated mice + B cells from unmanipulated mice, 7 days",five fold decrease
same,increase in help for anti-dsDNA antibody production following addition of rIL-2,CD4+ T cells; rIL-2 added at beginning of 7-day culture,did not exhibit any increase
same,"Percent Incidence, Grading of Lupus Nephritis 1+",SNF1 mice [5],66.6
same,"Percent Incidence, Grading of Lupus Nephritis 2+",SNF1 mice [5],33.3
same,survival,SNF1 mice [6]; by 26 months age,only one mouse in the H2B10-33 group survived
same,mice alive,"SNF1 mice [6]; two months after start of treatment (all controls dead), 300 micrograms i.p. monthly, 18-month old mice",66.6%
"H355-69: 15-mer nucleosomal histone H3 peptide, positions 55-69 (QKSTELLIRKLPFQR; UniProt P68431 56-70, looked up, fragment)",stimulation of DD2,CD4+ T cell clone DD2; autologous EBV-B cells pulsed with peptide as APC,stimulated DD2 very weakly
"H416-30: 15-mer histone H4 peptide, positions 16-30","IL-2 production response, percentage of maximal response stimulated by anti-CD3 mAb","[7]; average of 10 lupus T cell lines, baseline 22%",23±2.6%
"H449-63: histone peptide of H4, positions 49-63 (LIYEETRGVLKVFLE)",HLA class II dependence of peptide presentation,"[7]; short-term T cell line L-EB, autologous EBV-B cells, blocking mAb",inhibited mainly by anti-DR mAb
SQKEEEEGAQREKE (Histone fragment) [EP-1],stimulation of pathogenic Th clones,[1],stimulatory
same,onset/rate of disease relative to control group (CFA alone or OVA peptide in CFA),SNF1 mice [2],did not result in any increase in the rate of disease
"anti-CD3: Anti-CD3 antibody (mAb) produced by hybridoma OKT3, positive control stimulus [reference compound]",IL-2 production by T cell clone DD2,CD4+ T cell clone DD2; background with APC without peptide 132,554 picograms per milliliter
